In patent US20070112075A1 (Forest Laboratories, Inc., priority 2005, published 2007):
Counter-ions that a name gives are not always drawn.

Experiments:
[1] = test system: monoamine oxidase; conditions: cited from earlier work
[2] = test system: norepinephrine uptake; conditions: cited from earlier work
[3] = Stability of escitalopram oxalate in commercial formulations and in contact with bupropion hydrochloride; assay type: physicochemical
From the text: Preferably, the bupropion and escitalopram in the oral dosage form are physically separated. The inventors have discovered that conventional formulations of escitalopram hydrobromide and escitalopram oxalate unexpectedly degrade under storage conditions. […] The escitalopram and bupropion may be separated by having separate discrete zones of the dosage form (such as different layers) for each component. Alternatively, the dosage form may include a plurality of escitalopram tablets or beads and a plurality of bupropion tablets or beads, where one or both of the escitalopram tablets/beads and bupropion tablets/beads are coated.

Q: Which “inhibition of monoamine oxidase” value [1] does the source give for CC(NC(C)(C)C)C(=O)c1cccc(Cl)c1 (racemic) [bupropion, (±)-1-(3-chlorophenyl)-2-[(1,1-dimethylethyl)amino]-1-propanone] here?
A: does not inhibit

Q: What about the “blockade of norepinephrine uptake” value [2] of the same molecule?
A: weak blocker

Q: Which “time stable in commercial formulations” value ([3]; commercial formulations) does the source give for CN(C)CCC[C@@]1(c2ccc(F)cc2)OCc2cc(C#N)ccc21 [escitalopram oxalate] here?
A: about 12 months

Q: What about the “degradation rate compared with commercial formulations” value ([3]; stored in intimate contact with bupropion hydrochloride) of the same molecule?
A: degrades significantly more rapidly
